In a compilation of properties of binary mixtures (doi:10.1021/je050387r):

Assay: xn = mol fraction of the nth substance listed
Conditions: 101 kPa

CCCC[n+]1ccn(C)c1.F[B-](F)(F)F + O
viscosity [mPa·s]
Conditions	x2 = 0	x2 = 0.1002	x2 = 0.209	x2 = 0.2984	x2 = 0.4001	x2 = 0.5014	x2 = 0.6004	x2 = 0.7	x2 = 0.8	x2 = 0.8999
303.15 K	–	47.6	34.9	23.3	16.6	12	10	6.7	4.36	2.53
308.15 K	58.2	–	–	19.4	13.6	10.5	8.7	5.85	3.8	2.21
313.15 K	–	30.7	23.5	16.2	11.4	–	–	5.35	3.36	1.95
318.15 K	37.8	25.7	19.6	14.1	9.7	7.8	–	4.53	2.99	1.73
323.15 K	31.1	21.5	–	11.7	–	6.8	5.69	4.05	2.68	1.54
333.15 K	21.5	15.4	12	8.6	6.2	5.28	4.75	3.29	2.19	1.28
343.15 K	15.6	11.5	9	–	4.68	4.24	–	–	1.82	–
353.15 K	11.5	–	6.8	4.96	3.56	3.44	–	2.31	1.54	0.91

O + CCCC[n+]1ccn(C)c1.F[B-](F)(F)F
x1 = 1
Conditions	viscosity [mPa·s]
303.15 K	0.8
308.15 K	0.72
313.15 K	0.65
318.15 K	0.6
323.15 K	0.55
343.15 K	0.4
353.15 K	0.35
